Four compounds from PubChem BioAssay AID1259407 (Chemical Carcinogenesis Research Information System (CCRIS), 2018) can be followed below.

The subject of the series is CCRIS mutagenicity, Ames/micronucleus/aberration tests. Briefly: CCRIS mutagenicity studies.

Activity calls are given as the source filed them. The rule behind the calls is not given here.

With `O=c1c(O)c(-c2ccc(O)c(O)c2)oc2cc(O)cc(O)c12`, the mutagenic call runs as follows: (End Point: IN VIVO MICRONUCLEUS, Test System: BONE MARROW POLYCHROMATIC ERYTHROCYTES, Species: MOUSE, Strain/Sex: DDY/MALE, Route: IP) “inactive; negative”; (End Point: In vivo micronucleus, Test System: Bone marrow polychromatic erythrocytes, Species: Rat, Strain/Sex: Wistar/Male, Route: Oral (gavage)) “inactive; negative”; (Test System: AMES SALMONELLA TYPHIMURIUM, Strain/Indicator: TA97, Metabolic Activation: NONE, Method: STANDARD PLATE) “active; positive”; (Test System: AMES SALMONELLA TYPHIMURIUM, Strain/Indicator: TA97A, Metabolic Activation: NONE, Method: STANDARD PLATE) “active; positive”; (Test System: AMES SALMONELLA TYPHIMURIUM, Strain/Indicator: TA97A, Metabolic Activation: RAT, LIVER, S9, AROCLOR 1254, Method: STANDARD PLATE) “active; positive”; (Test System: AMES SALMONELLA TYPHIMURIUM, Strain/Indicator: TA98, Metabolic Activation: HAMSTER, LIVER, S9, AROCLOR 1254 (30%), Method: PREINCUBATION) “active; positive”. Also, the mutagenic call (Test System: AMES SALMONELLA TYPHIMURIUM, Strain/Indicator: TA98, Metabolic Activation: NONE, Method: FLUCTUATION (MICROTITER)) was “active; positive”; the mutagenic call (Test System: AMES SALMONELLA TYPHIMURIUM, Strain/Indicator: TA98, Metabolic Activation: NONE, Method: PREINCUBATION) was “active; positive”; the mutagenic call (Test System: AMES SALMONELLA TYPHIMURIUM, Strain/Indicator: TA98, Metabolic Activation: NONE, Method: STANDARD PLATE) is “active; positive”; the mutagenic call (Test System: AMES SALMONELLA TYPHIMURIUM, Strain/Indicator: TA98, Metabolic Activation: RAT, LIVER, CYTOSOL, Method: PREINCUBATION) is “active; positive”; the mutagenic call (Test System: AMES SALMONELLA TYPHIMURIUM, Strain/Indicator: TA98, Metabolic Activation: RAT, LIVER, S9, 5,6-BENZOFLAVONE AND/OR SODIUM PHENOBARBITAL, Method: PREINCUBATION) is “active; positive”; the mutagenic call (Test System: AMES SALMONELLA TYPHIMURIUM, Strain/Indicator: TA98, Metabolic Activation: RAT, LIVER, S9, AROCLOR 1254 (30%), Method: PREINCUBATION) is “active; positive”. For the same compound, the mutagenic call runs as follows: (Test System: AMES SALMONELLA TYPHIMURIUM, Strain/Indicator: TA98, Metabolic Activation: RAT, LIVER, S-9, PHENOBARBITAL, Method: STANDARD PLATE) “active; positive”; (Test System: AMES SALMONELLA TYPHIMURIUM, Strain/Indicator: TA98, Metabolic Activation: S9, GLUCOSE-6-PHOSPHATE AND NADP, Method: STANDARD PLATE) “active; positive”; (Test System: AMES SALMONELLA TYPHIMURIUM, Strain/Indicator: TA98, Metabolic Activation: S9, Method: STANDARD PLATE) “active; positive”; (Test System: AMES SALMONELLA TYPHIMURIUM, Strain/Indicator: TA98, Metabolic Activation: S-100, GLUCOSE-6-PHOSPHATE AND NADP, Method: STANDARD PLATE) “active; positive”; (Test System: AMES SALMONELLA TYPHIMURIUM, Strain/Indicator: TA98, Metabolic Activation: S-100, Method: STANDARD PLATE) “active; positive”; (Test System: AMES SALMONELLA TYPHIMURIUM, Strain/Indicator: TA100, Metabolic Activation: HAMSTER, LIVER, S9, AROCLOR 1254 (30%), Method: PREINCUBATION) “active; positive”. Also, the mutagenic call by setting is: (Test System: AMES SALMONELLA TYPHIMURIUM, Strain/Indicator: TA100, Metabolic Activation: NONE, Method: PREINCUBATION) “active; positive”; (Test System: AMES SALMONELLA TYPHIMURIUM, Strain/Indicator: TA100, Metabolic Activation: NONE, Method: STANDARD PLATE) “active; positive”; (Test System: AMES SALMONELLA TYPHIMURIUM, Strain/Indicator: TA100, Metabolic Activation: RAT, LIVER, S9, AROCLOR 1254 (30%), Method: PREINCUBATION) “active; positive”; (Test System: AMES SALMONELLA TYPHIMURIUM, Strain/Indicator: TA100, Metabolic Activation: RAT, LIVER, S-9, PHENOBARBITAL, Method: STANDARD PLATE) “active; positive”; (Test System: AMES SALMONELLA TYPHIMURIUM, Strain/Indicator: TA102, Metabolic Activation: RAT, LIVER, S9, AROCLOR 1254, Method: STANDARD PLATE) “active; positive”; (Test System: AMES SALMONELLA TYPHIMURIUM, Strain/Indicator: TA1535, Metabolic Activation: NONE, Method: STANDARD PLATE) “inactive; negative”. The mutagenic call by setting is: (Test System: AMES SALMONELLA TYPHIMURIUM, Strain/Indicator: TA1537, Metabolic Activation: NONE, Method: FLUCTUATION (MICROTITER)) “active; positive”; (Test System: AMES SALMONELLA TYPHIMURIUM, Strain/Indicator: TA1538, Metabolic Activation: NONE, Method: STANDARD PLATE) “active; positive”; (Test System: AMES SALMONELLA TYPHIMURIUM, Strain/Indicator: TA7001, Metabolic Activation: NONE, Method: FLUCTUATION (MICROTITER)) “inactive; negative”; (Test System: AMES SALMONELLA TYPHIMURIUM, Strain/Indicator: TA7002, Metabolic Activation: NONE, Method: FLUCTUATION (MICROTITER)) “active; positive”; (Test System: AMES SALMONELLA TYPHIMURIUM, Strain/Indicator: TA7003, Metabolic Activation: NONE, Method: FLUCTUATION (MICROTITER)) “inactive; negative”; (Test System: AMES SALMONELLA TYPHIMURIUM, Strain/Indicator: TA7004, Metabolic Activation: NONE, Method: FLUCTUATION (MICROTITER)) “active; positive”. The mutagenic call runs as follows: (Test System: AMES SALMONELLA TYPHIMURIUM, Strain/Indicator: TA7005, Metabolic Activation: NONE, Method: FLUCTUATION (MICROTITER)) “active; positive”; (Test System: AMES SALMONELLA TYPHIMURIUM, Strain/Indicator: TA7006, Metabolic Activation: NONE, Method: FLUCTUATION (MICROTITER)) “inactive; negative”; (Test System: Ames Salmonella typhimurium, Strain/Indicator: TA98, Metabolic Activation: None, Method: Standard plate) “active; positive”; (Test System: Ames Salmonella typhimurium, Strain/Indicator: TA98, Metabolic Activation: Rat, Liver, S9, Aroclor 1254, Method: Standard plate) “active; positive”; (Test System: Ames Salmonella typhimurium, Strain/Indicator: TA100, Metabolic Activation: None, Method: Standard plate) “active; positive”; (Test System: Ames Salmonella typhimurium, Strain/Indicator: TA100, Metabolic Activation: Rat, Liver, S9, Aroclor 1254, Method: Standard plate) “active; positive”. Also, the mutagenic call by setting is: (Test System: Ames Salmonella typhimurium, Strain/Indicator: TA102, Metabolic Activation: Fe ++ (1 uM) with NADPH generating system, Method: Preincubation) “active; positive”; (Test System: Ames Salmonella typhimurium, Strain/Indicator: TA102, Metabolic Activation: None, Method: Preincubation) “active; positive”; (Test System: Ames Salmonella typhimurium, Strain/Indicator: TA102, Metabolic Activation: Rat, Liver, S9, Aroclor 1254, Method: Preincubation) “active; positive”; (Test System: Ames Salmonella typhimurium, Strain/Indicator: TA102, Metabolic Activation: Rat, Liver, S-9, Aroclor 1254 in 0.154 M KCl, Method: Preincubation) “active; positive”; (Test System: E. coli, Strain/Indicator: WP2 uvrA, Metabolic Activation: Fe ++ (1 uM) with NADPH generating system, Method: Preincubation) “active; positive”; (Test System: E. coli, Strain/Indicator: WP2 uvrA, Metabolic Activation: None, Method: Preincubation) “active; positive”. In addition, the mutagenic call is “active; positive” (Test System: E. coli, Strain/Indicator: WP2 uvrA, Metabolic Activation: Rat, Liver, S9, Aroclor 1254, Method: Preincubation); “inactive; negative” (Test System: UDS RAT GASTRIC MUCOSAL CELLS, Strain/Indicator: THY INCORP, Metabolic Activation: NONE, Method: LIQUID SCINTILLATION COUNTING); “inactive; negative” (Test System: UDS Rat hepatocytes, Strain/Indicator: Wistar (Male and female), Method: Autoradiography).

Take `CC(=O)Nc1ccc2c(c1OC(=O)c1ccccc1)Cc1ccccc1-2`: the mutagenic call (Test System: AMES SALMONELLA TYPHIMURIUM, Strain/Indicator: TA98, Metabolic Activation: RAT, LIVER, S-9, AROCLOR 1254, Method: STANDARD PLATE) is “inactive; negative”.

Turning to `O[C@H]1C=Cc2c(ccc3nc4ccc5ccccc5c4cc23)[C@@H]1O`, the mutagenic call runs as follows: (Test System: AMES SALMONELLA TYPHIMURIUM, Strain/Indicator: TA98, Metabolic Activation: GUINEA PIG, LIVER, S-9, 3-METHYLCHOLANTHRENE, Method: STANDARD PLATE) “inactive; negative”; (Test System: AMES SALMONELLA TYPHIMURIUM, Strain/Indicator: TA100, Metabolic Activation: GUINEA PIG, LIVER, S-9, 3-METHYLCHOLANTHRENE, Method: STANDARD PLATE) “active; positive”; (Test System: CHINESE HAMSTER V-79, Strain/Indicator: V-79/6-THIOGUANINE, Metabolic Activation: GUINEA PIG, LIVER, S-9, 3-METHYLCHOLANTHRENE) “active; positive”.

In the case of `[CH]#[W]`, where the note is “End Point: IN VITRO MICRONUCLEUS, Test System: HUMAN LYMPHOCYTES, Metabolic Activation: NONE”, the mutagenic call is “active; positive”.
